We go through 6 molecules from ChEMBL document CHEMBL1139652, “6H,13H-Pyrazino[1,2-a;4,5-a']diindole analogs: probing the pharmacophore for allosteric ligands of muscarinic M2 receptors” (Bioorg Med Chem Lett, 2006).

Test [1] is described as follows: Selectivity for muscle type nAChR over muscarinic M2 receptor in hepes buffer.
Test [2] deals with T1, Muscarinic acetylcholine receptor M2 (Homo sapiens, UniProt P08172).
T1 sequence (P08172 whole entry): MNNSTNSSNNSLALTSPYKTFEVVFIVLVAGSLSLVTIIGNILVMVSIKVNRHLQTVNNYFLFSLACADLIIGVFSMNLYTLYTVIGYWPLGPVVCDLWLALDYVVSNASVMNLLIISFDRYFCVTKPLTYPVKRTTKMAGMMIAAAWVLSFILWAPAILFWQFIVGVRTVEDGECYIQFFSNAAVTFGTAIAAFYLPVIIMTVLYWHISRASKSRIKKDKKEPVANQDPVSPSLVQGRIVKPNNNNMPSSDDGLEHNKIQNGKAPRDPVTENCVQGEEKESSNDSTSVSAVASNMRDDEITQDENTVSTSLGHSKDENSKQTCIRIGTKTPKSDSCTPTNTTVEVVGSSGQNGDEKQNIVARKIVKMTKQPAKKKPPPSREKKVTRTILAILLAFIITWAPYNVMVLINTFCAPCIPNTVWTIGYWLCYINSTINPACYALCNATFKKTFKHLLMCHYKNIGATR
In words: Inhibition of [3H]NMS dissociation from muscarinic M2 receptor in hepes buffer.

Test [3] concerns the target Acetylcholine receptor (Torpedo californica, UniProt P02710+P02712+P02714+P02718). The test can be described thus: Displacement of (+/-)-[3H]epibatidine from muscle type nAChR of Torpedo californica in hepes buffer. It counts as tissue-based, Tetronarce californica.
Test [4] has as its target T1, Muscarinic acetylcholine receptor M2. The test can be described thus: Inhibition of [3H]NMS dissociation from muscarinic M2 receptor in Na,K,Pi buffer.

Acetylcholine receptor, sequence (P02710 whole entry): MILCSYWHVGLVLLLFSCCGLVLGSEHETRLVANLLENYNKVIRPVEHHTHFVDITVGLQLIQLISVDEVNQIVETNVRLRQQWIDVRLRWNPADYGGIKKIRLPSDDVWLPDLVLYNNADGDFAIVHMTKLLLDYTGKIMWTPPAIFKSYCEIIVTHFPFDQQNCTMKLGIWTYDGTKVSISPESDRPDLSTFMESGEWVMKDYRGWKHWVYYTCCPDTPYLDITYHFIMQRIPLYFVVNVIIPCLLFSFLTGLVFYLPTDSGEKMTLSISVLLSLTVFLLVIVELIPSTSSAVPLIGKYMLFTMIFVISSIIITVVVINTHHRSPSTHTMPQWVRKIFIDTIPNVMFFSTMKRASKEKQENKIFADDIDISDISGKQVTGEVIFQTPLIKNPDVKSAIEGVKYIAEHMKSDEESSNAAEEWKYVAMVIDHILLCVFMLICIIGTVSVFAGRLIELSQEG
Acetylcholine receptor, sequence (P02712 whole entry): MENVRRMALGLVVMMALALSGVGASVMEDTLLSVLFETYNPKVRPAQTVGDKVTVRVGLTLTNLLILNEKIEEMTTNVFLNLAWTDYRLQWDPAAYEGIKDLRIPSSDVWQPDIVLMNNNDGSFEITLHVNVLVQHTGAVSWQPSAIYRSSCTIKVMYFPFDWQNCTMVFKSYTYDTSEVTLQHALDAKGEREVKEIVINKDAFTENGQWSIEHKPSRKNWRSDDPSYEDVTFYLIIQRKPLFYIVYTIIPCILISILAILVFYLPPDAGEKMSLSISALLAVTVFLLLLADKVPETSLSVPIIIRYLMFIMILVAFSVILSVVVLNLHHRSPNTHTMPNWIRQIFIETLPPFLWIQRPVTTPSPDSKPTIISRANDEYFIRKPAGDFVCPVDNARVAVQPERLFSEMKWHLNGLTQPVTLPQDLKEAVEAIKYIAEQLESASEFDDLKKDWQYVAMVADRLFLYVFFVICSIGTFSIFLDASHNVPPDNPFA
Acetylcholine receptor, sequence (P02718 whole entry): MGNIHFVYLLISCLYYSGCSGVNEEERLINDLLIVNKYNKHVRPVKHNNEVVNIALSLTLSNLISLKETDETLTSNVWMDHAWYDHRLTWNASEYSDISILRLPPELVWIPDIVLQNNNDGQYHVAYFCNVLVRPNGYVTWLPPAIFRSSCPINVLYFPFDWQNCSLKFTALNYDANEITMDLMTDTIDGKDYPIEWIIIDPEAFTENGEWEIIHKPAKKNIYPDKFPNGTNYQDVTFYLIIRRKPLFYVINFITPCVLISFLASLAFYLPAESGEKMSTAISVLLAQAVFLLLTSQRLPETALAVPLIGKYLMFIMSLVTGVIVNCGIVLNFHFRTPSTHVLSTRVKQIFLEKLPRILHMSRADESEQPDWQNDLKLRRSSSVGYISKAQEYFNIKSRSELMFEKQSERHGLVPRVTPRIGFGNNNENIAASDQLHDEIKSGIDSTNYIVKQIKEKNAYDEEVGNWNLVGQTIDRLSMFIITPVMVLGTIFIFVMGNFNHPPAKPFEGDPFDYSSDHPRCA
Acetylcholine receptor, sequence (P02714 whole entry): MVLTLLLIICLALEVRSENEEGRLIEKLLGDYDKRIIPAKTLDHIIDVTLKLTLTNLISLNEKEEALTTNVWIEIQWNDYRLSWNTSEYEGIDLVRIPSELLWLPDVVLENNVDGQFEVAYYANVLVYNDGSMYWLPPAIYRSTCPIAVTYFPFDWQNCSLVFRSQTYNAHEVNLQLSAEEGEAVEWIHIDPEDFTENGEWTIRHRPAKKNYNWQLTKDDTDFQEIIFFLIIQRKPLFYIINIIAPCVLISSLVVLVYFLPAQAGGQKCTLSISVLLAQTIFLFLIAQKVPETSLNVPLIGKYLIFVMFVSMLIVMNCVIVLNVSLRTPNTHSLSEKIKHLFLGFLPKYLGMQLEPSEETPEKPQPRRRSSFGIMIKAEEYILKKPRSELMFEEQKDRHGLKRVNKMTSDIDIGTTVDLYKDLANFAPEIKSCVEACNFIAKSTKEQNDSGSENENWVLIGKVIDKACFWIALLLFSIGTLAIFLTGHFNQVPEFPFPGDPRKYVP

One may read the EC50 as the concentration at which the effect is half-maximal. Read a high EC50 as a need for much substance. Usually Ki stands for a dissociation constant, usually derived from enzyme kinetics or from competition with a known ligand. A high value points to weaker binding. For `C=CC[N+](C)(C)Cc1c2n(c3ccccc13)Cc1c(C[N+](C)(C)CC=C)c3ccccc3n1C2`, the Selectivity ratio in test [1] stood at 4.2. For the same molecule, the EC50 in test [2] was 2.29 µM; in test [4] it was 0.11 µM. In test [3], this molecule showed an inhibition constant (Ki) of 0.55 µM.
For the molecule `C[N+]12CC[C@@]34c5ccccc5N5[C@@H]6OCC=C7C[N+]8(C)CC[C@]9%10c%11ccccc%11N([C@@H]%11OCC=C(C1)[C@H](C[C@@H]32)[C@@H]%11[C@H]54)[C@H]9[C@H]6[C@H]7C[C@@H]%108` (stereo partly drawn) [DIMETHYLCARACURIE V], affinity in test [3] was put at a Ki of 5.25 µM. This molecule also showed an EC50 in test [4] of 0.00813 µM.
For `C1=C2CN3CC[C@]45c6ccccc6N6[C@@H]7OCC=C8CN9CC[C@]%10%11c%12ccccc%12N([C@H](OC1)[C@@H]([C@H]64)[C@H]2C[C@H]35)[C@H]%10[C@H]7[C@H]8C[C@H]9%11` [CARACURINE V], in test [3], the inhibition constant Ki was more than 100 µM. In test [4], this molecule had a concentration for a half-maximal effect (EC50) of 0.437 µM.
As for `C[N+](C)(C)Cc1c2n(c3ccccc13)Cc1c(C[N+](C)(C)C)c3ccccc3n1C2`, the Selectivity ratio in test [1] stood at 34. Also, the values for the 50% effective concentration (EC50) in test [2] and in test [4] were 11.2 µM and 0.229 µM, respectively. For the same molecule, the Ki in test [3] is 0.331 µM.
The corresponding values for `CN(C)Cc1c2n(c3ccccc13)Cc1c(CN(C)C)c3ccccc3n1C2` are 1.5, 16.6 µM, 0.447 µM and 10.7 µM.
In the case of `C=CC[N+]12CC[C@@]34c5ccccc5N5[C@@H]6OCC=C7C[N+]8(CC=C)CC[C@]9%10c%11ccccc%11N([C@@H]%11OCC=C(C1)[C@H](C[C@@H]32)[C@@H]%11[C@H]54)[C@H]9[C@H]6[C@H]7C[C@@H]%108` (stereo partly drawn) [DIALLYLCARACURIE V], in test [3], the Ki was 1.51 µM. For the same molecule, the EC50 in test [4] is 0.0112 µM.
